Like-named read-outs stand apart in the source and are kept apart here.
Tests used:
[1] = test system: TdT; details: cited from earlier work
[2] = test system: other cellular DNA polymerases; details: 100 mM ATP added (Mertelsmann); cited from earlier work
[3] = test system: Terminal Deoxynucleotidyl Transferase (TdT); test: Incorporation of tritium labeled nucleotide into acid insoluble polydeoxynucleotides by purified TdT; type: biochemical; details: purified TdT enzyme sample, 90 minute incubation period, tritium labeled substrate
Method: (§1) To illustrate that suitable modified deoxynucleoside triphosphates and/or single stranded oligodeoxynucleotides which have impaired basing pairing abilities, as described above, are specific to TdT, tritium labeled ethenodeoxyadenosine triphosphate (etheno dATP) and tritium labeled deoxyadenosine triphosphate (dATP) were appropriately incubated with a purified TdT enzyme sample and with a purified E. coli DNA polymerase I sample.

[4] = biological target: E. coli DNA polymerase I (Escherichia coli, UniProt P00582); test: Incorporation of tritium labeled nucleotide into acid insoluble polydeoxynucleotide by purified E. coli DNA polymerase I; type: biochemical; details: purified E. coli DNA polymerase I sample, 90 minute incubation period, tritium labeled substrate
Sequence of E. coli DNA polymerase I (P00582 whole entry): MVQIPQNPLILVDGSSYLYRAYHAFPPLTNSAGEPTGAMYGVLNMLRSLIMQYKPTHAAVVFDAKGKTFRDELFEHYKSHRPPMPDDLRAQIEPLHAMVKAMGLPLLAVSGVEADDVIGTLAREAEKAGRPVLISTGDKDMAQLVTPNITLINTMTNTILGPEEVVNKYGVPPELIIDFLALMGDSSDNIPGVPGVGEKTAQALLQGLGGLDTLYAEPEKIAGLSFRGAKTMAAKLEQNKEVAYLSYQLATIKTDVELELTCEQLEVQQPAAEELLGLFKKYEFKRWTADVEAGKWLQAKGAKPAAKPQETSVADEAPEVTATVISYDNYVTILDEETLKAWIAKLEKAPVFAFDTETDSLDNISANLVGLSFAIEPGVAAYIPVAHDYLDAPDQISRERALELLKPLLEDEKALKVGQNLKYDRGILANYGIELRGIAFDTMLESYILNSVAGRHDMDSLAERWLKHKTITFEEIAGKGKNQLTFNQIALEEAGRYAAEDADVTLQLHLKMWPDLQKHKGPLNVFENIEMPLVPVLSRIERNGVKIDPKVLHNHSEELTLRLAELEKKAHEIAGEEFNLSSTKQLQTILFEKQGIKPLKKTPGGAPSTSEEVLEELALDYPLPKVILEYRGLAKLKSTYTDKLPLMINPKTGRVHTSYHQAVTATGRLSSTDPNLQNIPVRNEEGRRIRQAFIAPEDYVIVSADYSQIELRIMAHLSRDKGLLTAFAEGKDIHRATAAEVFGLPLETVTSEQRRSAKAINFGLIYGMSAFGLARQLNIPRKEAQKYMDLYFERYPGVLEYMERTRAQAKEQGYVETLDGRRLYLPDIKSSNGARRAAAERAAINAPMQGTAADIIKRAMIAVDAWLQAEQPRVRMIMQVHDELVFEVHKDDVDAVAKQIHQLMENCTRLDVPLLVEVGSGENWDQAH
Method: as §1

[5] = test system: polynucleotide phophorylase; details: cited from earlier work

| Molecule | incorporation into acid insoluble polydeoxynucleotides [3] | incorporation into acid insoluble polydeoxynucleotide [4] | further results |
| --- | --- | --- | --- |
| Nc1ncnc2c1ncn2[C@@H]1O[C@H](COP(=O)(O)OP(=O)(O)OP(=O)(O)O)[C@@H](O)[C@H]1O [ATP, adenosine triphosphate] | – | – | inhibition of TdT activity ([1]; 100 mM ATP added (Mertelsmann)): specifically inhibits TdT; effect on other cellular DNA polymerases [2]: without affecting other cellular DNA polymerases |
| Nc1ncnc2c1ncn2[C@H]1C[C@H](O)[C@@H](COP(=O)(O)OP(=O)(O)OP(=O)(O)O)O1 [dATP, deoxyadenosine triphosphate] | progressive incorporation | normally and appreciably incorporated | – |
| CCN1C(=O)C=CC1=O [N-ethylmaleimide] | – | – | inhibition of TdT activity ([1]; 10% ethanol and 10 mM N-ethylmaleimide added (Coleman)): completely inhibit TdT activity |
| O=P(O)(O)OP(=O)(O)OP(=O)(O)OC[C@H]1O[C@@H](n2cnc3c2ncn2ccnc32)C[C@@H]1O [etheno-dATP, 1,N^6 -ethenodeoxy-adenosine triphophate] | progressive incorporation | no detectable incorporation | – |
| 6-dimethylaminoadenine | – | – | substrate for template independent RNA polymerase, polynucleotide phophorylase [5]: remains a substrate |

Source: US4307189A, “Method for the quantitative determination of terminal deoxynucleotidyl transferase in biological samples” (priority 1980, dated 1981)
